The structures appear in SMILES notation.

The record followed here is patent US8030518B2, “1,4 diamino bicyclic retigabine analogues as potassium channel modulators” (Valeant Pharmaceuticals International, priority 2006, dated 2011).

The target of one assay is T1, KCNQ2/3 heteromultimers (Rattus norvegicus, UniProt O88943+O88944).
T1 construct: endogenous in cells; host or cells: PC-12 cells differentiated with NGF-7s; no transfection described
The assay is described as follows: cell-based Rb+ efflux assay in PC-12 cells. Particulars: Rb+ efflux cellular assay. The procedure:
Compounds of this invention formula were evaluated for activity toward potassium channels in a cell-based Rb^+ efflux assay. This cellular bioassay is believed to faithfully represent the M channel activities identified with KCNQ2/3 heteromultimers. […] Additionally, antiseizure activity in vivo was evaluated in a mouse maximal electroshock seizure (MES) model, and neurotoxicities were determined from a rotorod neurocognitive motor impairment model and open field observation.
PC-12 cells were grown at 37° C. and 5% CO2 in DMEM/F12 Medium (Dulbecco's Modified Eagle Medium with Nutrient Mix F-12, available from Invitrogen of Carlsbad, Calif.), supplemented with 10% horse serum, 5% fetal bovine serum, 2 mM glutamine, 100 U/ml penicillin, and 100 U/ml streptomycin. They were plated in poly-D-lysine-coated 96-well cell culture microplates at a density of 40,000 cells/well and differentiated with 100 ng/ml NGF-7s for 2-5 days. For the assay, the medium was aspirated, and the cells were washed once with 0.2 ml wash buffer (25 mM HEPES, pH 7.4, 150 mM NaCl, 1 mM MgCl2, 0.8 mM NaH2PO4, 2 mM CaCl2). The cells were then loaded with 0.2 ml Rb^+ loading buffer (wash buffer plus 5.4 mM […], 5 mM glucose) and incubated at 37° C. for 2 h. Attached cells were washed quickly three times with buffer (same as Rb^+ loading buffer, but containing 5.4 mM KCl instead of RbCl) to remove extracellular Rb^+. Immediately following the wash, 0.2 ml of depolarization buffer (wash buffer plus 15 mM KCl solution) with or without compounds was added to the cells to activate efflux of potassium ion channels. After incubation for 10 min at room temperature, the supernatant was carefully removed and collected. Cells were lysed by the addition of 0.2 ml of lysis buffer (depolarization buffer plus 0.1% Triton X-100) and the cell lysates were also collected. If collected samples were not immediately analyzed for Rb^+ contents by atomic absorption spectroscopy (see below), they were stored at 4° C. without any negative effects on subsequent Rb^+ analysis.
The concentrations of Rb^+ in the supernatants (Rb^+Sup) and the cell lysates (Rb^+Lys) were quantified using an ICR8000 flame atomic absorption spectrometer (Aurora Biomed Inc., Vancouver, B.C.) under conditions defined by the manufacturer. Samples 0.05 ml in volume were processed automatically from microtiter plates by dilution with an equal volume of Rb^+ sample analysis buffer and injection into an air-acetylene flame. The amount of Rb^+ in the sample was measured by absorption at 780 nm using a hollow cathode lamp as light source and a PMT detector. A calibration curve covering the range 0-5 mg/L Rb^+ in sample analysis buffer was generated with each set of plates. The percent Rb^+ efflux (F) was defined by F=[Rb^+Sup/(Rb^+Sup+Rb^+Lys)]×100%. […] The efflux (F) and compound concentration relationship was plotted to calculate an EC50 value, a compound's concentration for 50% of maximal Rb^+ efflux. Seizure Model Tests

The subject of assay [1] is maximal electroshock seizure. The assay can be described thus: mouse maximal electroshock seizure (MES) test. It counts as in vivo. Details: key: A: active; B: inactive. The note with it: ip dosing of 12.5 mg/kg. From the text:
The MES testing protocol is based on procedures established at the National Institute of Neurological Disorders and Stroke in conjunction with the Anticonvulsant Screening Program (ASP) at the University of Utah (White, H. S., Woodhead, J. H., Wilcox, K. S., Stables, J. P., Kupferberg, H. J and Wolf, H. H. 2002. “General Principles: Discovery and Preclinical Development of Antiepileptic Drugs,” in Antiepileptic Drugs, 5th Edition, R. H. Levy, ed.; R. H. Mattson, B. S. Meldrum, and E. Perucca. Philadelphia, Lippincott Williams & Wilkins.), The goal of the test is to rapid identify and characterize the in vivo anticonvulsant activity of any compounds that have been shown active in PC-12 cellular based Rb^+ efflux assay.
Adult male CF-1 albino mice (18-25 g, Charles River Laboratories) are […] used for MES screening of compounds. Male Sprague-Dawley albino rats (100-125 g, Charles River Laboratories) are also used to test anticonvulsant compounds. Animals are permitted to rest and recover from transit for at least 48 hr prior to experimentation. Animals are used for AED testing only once. In some instances, the animals can be anesthetized prior to blood collection or whole brain extraction for pharmacokinetic assay. All animals are maintained and handled as outlined in standard animal care guidelines.
In the experiments, testing compounds are prepared as suspensions in 0.5% methyl cellulose (Sigma, Cat # M0512, Viscosity 4000 cP at 20° C.) in water, regardless of solubility. Dry powder compounds are initially ground with a glass rod in a test tube in several drops of methyl cellulose to create a paste and to break down any large chunks. After several minutes of grinding, the volume of the suspension is increased to the final concentration desired. The suspension is then sonicated using a Branson sonicator model 3510 in a water bath at room temperature for 15 minutes. Compound suspensions are further vortexed prior to animal dosing. In some of the cases, DMSO is used to initially solubilize compounds in small volumes and then this solution is added to the 0.5% methyl cellulose solution, in order to create more even and less aggregated compound suspensions. The final concentration of DMSO is 3.75%, an amount with no apparent toxicity or neuroprotective effects in our usual rotarod and MES tests. Methyl cellulose/DMSO compound suspensions are identically prepared for intraperitoneally (i.p.)dosing to mice or orally (p.o.) dosing to rats.
Initially the animals are weighed with an electronic scale and then marked. Data recording sheets are generated for each compound assessment. Mice or rats are dosed with the compound suspension at 0.01 mL/g of body weight. The typical injection volume range is between 180-250 μl for mice. Compounds are dosed by i.p. to mice using a 25 or 22 gauge needle, depending on the viscosity of the suspension. Rats are p.o. dosed using a flexible feeding tube, typically starting at a compound dose of 5 mg/kg.
A Rodent Electroconvulsive Stimulator (Model 200, Hamit-Darvin-Freesh, Snow Canyon Clinic, Ivins, Utah) is used for MES testing. A 60-Hz alternating current (50 mA for mice; 150 mA for rats) is delivered for 0.2 seconds through corneal electrodes to the mice. A drop of 0.5% tetracaine (Sigma, Cat. # T-7508) solution is placed on the eye prior to current delivery. The electrodes are subsequently placed gently onto the eyes of the animal and the electrical shock is initiated by triggering through a foot-pedal activator. The animals are restrained by hand and gently released as the shock is delivered and the seizure commences. Animals are monitored for hind limb tonic extension as the end point for this test. Current delivery is recorded as a measure of overall seizure-induction potential. Electrical current delivery can vary from approximately 30-55 mA (mice) or 90-160 mA (rats) depending on impedance in the animal and quality of the current delivery (i.e. correct placement of the electrodes on the cornea). […]
(In the maximal electroshock model the usual endpoint is tonic extension of the hind limbs.)

Consider `Cc1cc2c(c(C)c1NC(=O)CC(C)(C)C)CCC2Nc1ccc(Cl)c(Cl)c1` (stereo not shown) [Example 20, N-(4,6-dimethyl-1-(3,4-dichlorophenylamine)-2,3-dihydro-1H-inden-5-yl)-3,3-dimethylbutanamide], for which the EC50 (usually the concentration that produces a half-maximal response) on KCNQ2/3 heteromultimers is ≤ 1 nM. Besides, the “Mouse MES test” value in assay [1] is reported as “A”. For `Cc1cc2c(c(C)c1NC(=O)CC(C)(C)C)CCCC2Nc1ccc(Cl)cc1` (stereo not shown) [Example 7, N-(1,3-dimethyl-5-(4-chlorophenylamino)-5,6,7,8-tetrahydronaphthalen-2-yl)-3,3-dimethylbutanamide], in that order: 1 to 10 nM and “A”. Take `Cc1c(Br)c2c(c(C)c1NC(=O)CC(C)(C)C)CCCC2Nc1ccc(C(F)(F)F)cc1` (stereo not shown): the EC50 at KCNQ2/3 heteromultimers was > 500 nM.

As to `Cc1cc2c(c(C)c1NC(=O)CC(C)(C)C)CCC2Nc1ccc(F)cc1` (single isomer, unassigned; (+)) [Example 13, (+) N-(1-(4-fluorophenylamino)-4,6-dimethyl-2,3-dihydro-1H-inden-5-yl)-3,3-dimethylbutanamide], on KCNQ2/3 heteromultimers, the EC50 was in the range of 1 to 10 nM. For the same molecule, in assay [1], the “Mouse MES test” value is recorded as “A”. For `Cc1cc2c(c(C)c1NC(=O)CC(C)(C)C)CCCC2Nc1ccc(Cl)c(Cl)c1` (stereo not shown) [Example 6, N-(1,3-dimethyl-5-(3,4-dichlorophenylamine)-5,6,7,8-tetrahydronaphthalen-2-yl)-3,3-dimethylbutanamide], in that order: 1 to 10 nM and “B”. The molecule `Cc1cc2c(c(C)c1NC(=O)CC(C)(C)C)CCCC2Nc1ccc(C(F)(F)F)cc1` (stereo not shown) [Example 5, N-(1,3-dimethyl-5-(4-(trifluoromethyl)phenylamino)-5,6,7,8-tetrahydronaphthalen-2-yl)-3,3-dimethylbutanamide] showed an EC50 on KCNQ2/3 heteromultimers of 1 to 10 nM. Moreover, the “Mouse MES test” value in assay [1] is “A”. For `Cc1cc2c(c(C)c1NC(=O)CC(C)(C)C)CCCC2Nc1ccc(F)cc1` (stereo not shown) [Example 2, N-(5-(4-fluorophenylamino)-1,3-dimethyl-5,6,7,8-tetrahydronaphthalen-2-yl)-3,3-dimethylbutanamide], in that order: 10 to 50 nM and “A”. For `Cc1cc2c(c(C)c1NC(=O)CC(C)(C)C)CCC2Nc1ccc(F)c(F)c1` (stereo not shown) [Example 21, N-(4,6-dimethyl-1-(3,4-difluorophenylamino)-2,3-dihydro-1H-inden-5-yl)-3,3-dimethylbutanamide], in that order: 1 to 10 nM and “A”. For `Cc1cc2c(c(C)c1NC(=O)CC(C)(C)C)CCCC2Nc1ccc(F)cc1` (single isomer, unassigned; (-)) [Example 3, (−)N-(5-(4-fluorophenylamino)-1,3-dimethyl-5,6,7,8-tetrahydronaphthalen-2-yl)-3,3-dimethylbutanamide], in that order: 1 to 10 nM and “A”. With `Cc1cc2c(c(C)c1NC(=O)CC(C)(C)C)CCC2Nc1ccc(C(F)(F)F)cc1` (single isomer, unassigned; (+)) [Example 16, (+) N-(4,6-dimethyl-1-(4-(trifluoromethyl)phenylamino)-2,3-dihydro-1H-inden-5-yl)-3,3-dimethylbutanamide], the EC50 at KCNQ2/3 heteromultimers was 1 to 10 nM. Besides, the “Mouse MES test” value in assay [1] is “A”. For `Cc1cc2c(c(C)c1NC(=O)CC(C)(C)C)CCC2Nc1ccc(Br)cc1` (stereo not shown) [Example 18, N-(4,6-dimethyl-1-(4-bromophenylamino)-2,3-dihydro-1H-inden-5-yl)-3,3-dimethylbutanamide], in that order: ≤ 1 nM and “A”. For `Cc1cc2c(c(C)c1NC(=O)CC(C)(C)C)CCCC2Nc1ccc(F)cc1` (single isomer, unassigned; (+)) [Example 4, (+)N-(5-(4-fluorophenylamino)-1,3-dimethyl-5,6,7,8-tetrahydronaphthalen-2-yl)-3,3-dimethylbutanamide], in that order: 10 to 50 nM and “A”.

At KCNQ2/3 heteromultimers, `Cc1cc2c(c(C)c1NC(=O)CC(C)(C)C)CCC2Nc1cccc(Cl)c1` (stereo not shown) [Example 19, N-(4,6-dimethyl-1-(3-chlorophenylamino)-2,3-dihydro-1H-inden-5-yl)-3,3-dimethylbutanamide] yielded an EC50 of 1 to 10 nM. The “Mouse MES test” value in assay [1] is on record as “A”.

As for `Cc1cc2c(c(C)c1NC(=O)CC(C)(C)C)CCC2Nc1ccc(Cl)cc1` (stereo not shown) [Example 17, N-(4,6-dimethyl-1-(4-chlorophenylamino)-2,3-dihydro-1H-inden-5-yl)-3,3-dimethylbutanamide], the EC50 at KCNQ2/3 heteromultimers was ≤ 1 nM. Besides, the “Mouse MES test” value in assay [1] is on record as “A”. As for `Cc1cc2c(c(C)c1NC(=O)CC(C)(C)C)CCCC2Nc1cccc(Cl)c1` (stereo not shown) [Example 9, N-(1,3-dimethyl-5-(3-chlorophenylamino)-5,6,7,8-tetrahydronaphthalen-2-yl)-3,3-dimethylbutanamide], at KCNQ2/3 heteromultimers, the EC50 lay in the range of 1 to 10 nM. Besides, the “Mouse MES test” value in assay [1] is “A”. At KCNQ2/3 heteromultimers, `Cc1cc2c(c(C)c1NC(=O)CC(C)(C)C)CCCC2Nc1ccc(Br)cc1` (stereo not shown) [Example 8, N-(1,3-dimethyl-5-(4-bromophenylamino)-5,6,7,8-tetrahydronaphthalen-2-yl)-3,3-dimethylbutanamide] came in with an EC50 of 1 to 10 nM. Same read-out and setting: in the case of `CCOC(=O)Nc1ccc2c(c1)CCC2Nc1ccc(F)cc1` (stereo not shown) [Example 25, Ethyl 1-(4-fluorophenylamino)-2,3-dihydro-1H-inden-5-yl-carbamate] it was > 500 nM.
